Source: patent publication US20090220598A1, “Stable Oral Pharmaceutical Composition Containing Thyroid Hormone Receptor Agonists” (priority 2006, published 2009)

Experiments:
[1] = Inhibition of nitration of compound 1A in the presence of nitrite by antioxidant inhibitor agents; format: physicochemical; conditions: for Nitration (%) of 1A with inhibiting agent: 1A 50 μM, NaNO2 100 μM; for inhibition of the nitrite-mediated nitration of 1A: pH and nitrite concentration that give almost total conversion to the nitro reaction product
Description: (§1) It is known that L-tyrosine can be converted to a nitro reaction product in which the NO2 group is substituted ortho to the ring hydroxyl group. The experimental procedure for determining the extent of nitration of L-tyrosine was used for determining the nitration of compound 1A and the inhibition thereof by selected antioxidants. The experimental procedure for L-tyrosine is known (1998, Chem. Res. Toxicol., 11, 1578). In brief, solutions of compound 1A (50 μM) were exposed to solutions of NaNO3 (2500 μM) and/or NaNO2 (various concentrations) at various pH values, at 37° C. and in the presence or absence of phosphate buffer. The nitration reaction leads to the formation of the 5′-nitro reaction product of compound 1A. This reaction product can be detected and quantified using HPLC, the reaction product having a reduced retention time (under the conditions used) compared to the parent compound. Antioxidant inhibitors were then added to NaNO2— and 1A-containing test solutions and the nitration tests repeated.
On addition of selected antioxidant inhibiting agents to compound 1A in the presence of nitrite, the results of Table 2 were achieved. The amount of antioxidant used was generally around 10-20 times the amount of compound 1A.

[2] = In vivo nitration study in rats; conditions: given with nitrate and nitrite solution (54 mg and 4 mg per rat)
[3] = Nitration of compound 1A in the presence of nitrite and/or nitrate at various pH (HPLC-MS/MS); format: physicochemical; conditions: 1A 50 μM
Description: as §1
Analysis was by HPLC-MS/MS, with the following conditions: […]

[4] = Clinical testing: nitrated reaction product after compound 1A as solution or enteric coated tablets; format: in vivo, human; conditions: solution, single dose, clinically relevant dosages
Description: Clinically relevant dosages of compound 1A were given to human subjects in the form of a solution in a single dose.

Cc1cc(C(C)(C)C)c(O)c(C(C)(C)C)c1 [BHT, butylated hydroxytoluene]
Nitration (%) of 1A with inhibiting agent ([1]; pH 2 (HCl), 24 hr): 0.02% | inhibition of the nitrite-mediated nitration of 1A [1]: essentially complete inhibition

O=C1O[C@H]([C@@H](O)CO)C([O-])=C1O.[Na+] [Sodium ascorbate]
Nitration (%) of 1A with inhibiting agent ([1]; pH 2 (HCl), 4 hr): 0.00% | Nitration (%) of 1A with inhibiting agent ([1]; pH 2 (phosphate), 4 hr): 0.00% | Nitration (%) of 1A with inhibiting agent ([1]; pH 6.4, 4 hr): 0.00% | Nitration (%) of 1A with inhibiting agent ([1]; pH 7.2, 4 hr): 0.00% | inhibition of the nitrite-mediated nitration of 1A [1]: essentially complete inhibition

O=S([O-])O.[Na+] [Sodium bisulfite]
Nitration (%) of 1A with inhibiting agent ([1]; pH 2 (HCl), 0 hr): 0.77% | Nitration (%) of 1A with inhibiting agent ([1]; pH 2 (HCl), 2 hr): 0.11% | Nitration (%) of 1A with inhibiting agent ([1]; pH 2 (phosphate), 0 hr): 0.11% | Nitration (%) of 1A with inhibiting agent ([1]; pH 2 (phosphate), 2 hr): 0.16% | Nitration (%) of 1A with inhibiting agent ([1]; pH 2 (phosphate), 4 hr): 0.17% | Nitration (%) of 1A with inhibiting agent ([1]; pH 6.4 (NaAc), 2 hr): 0% | Nitration (%) of 1A with inhibiting agent ([1]; pH 6.4 (NaAc), 4 hr): 0% | Nitration (%) of 1A with inhibiting agent ([1]; pH 6.4 (phosphate), 2 hr): 0% | Nitration (%) of 1A with inhibiting agent ([1]; pH 6.4 (phosphate), 4 hr): 0%

CC(C)c1cc(Oc2c(Br)cc(NC(=O)CC(=O)O)cc2Br)ccc1O [compound 1A, 3-[[3,5-Dibromo-4-[4-hydroxy-3-(1-methylethyl)-phenoxy]-phenyl]-amino]-3-oxopropanoic acid]
administered dose nitrated [2]: around 6% | Nitration (%) ([3]; NaNO2 100 μM, no NaNO3, pH 2 (HCl), 4 hr): 98.6% | Nitration (%) ([3]; NaNO2 100 μM, no NaNO3, pH 2 (phosphate), 4 hr): 4.27% | Nitration (%) ([3]; NaNO2 100 μM, no NaNO3, pH 6.4, 4 hr): 0.013% | Nitration (%) ([3]; NaNO2 100 μM, no NaNO3, pH 7.2, 4 hr): 0% | Nitration (%) ([3]; NaNO2 100 μM, no inhibiting agent, pH 6.4, 24 hr): 0.02% | Nitration (%) ([3]; NaNO2 400 μM, no inhibiting agent, pH 6.4, 24 hr): 0.12% | Nitration (%) ([3]; NaNO2 800 μM, no inhibiting agent, pH 6.4, 24 hr): 0.21% | Nitration (%) ([3]; NaNO3 2500 μM, NaNO2 100 μM, pH 2 (HCl), 4 hr): 8.4% | Nitration (%) ([3]; NaNO3 2500 μM, NaNO2 100 μM, pH 2 (phosphate), 4 hr): 9.63% | Nitration (%) ([3]; NaNO3 2500 μM, NaNO2 100 μM, pH 6.4, 4 hr): 0.017% | Nitration (%) ([3]; NaNO3 2500 μM, NaNO2 100 μM, pH 7.2, 4 hr): 0% | Nitration (%) ([3]; NaNO3 2500 μM, no NaNO2, pH 2 (HCl), 4 hr): 0% | Nitration (%) ([3]; NaNO3 2500 μM, no NaNO2, pH 2 (phosphate), 4 hr): 0% | Nitration (%) ([3]; NaNO3 2500 μM, no NaNO2, pH 6.4, 4 hr): 0% | Nitration (%) ([3]; NaNO3 2500 μM, no NaNO2, pH 7.2, 4 hr): 0% | Nitration (%) ([3]; no NaNO3, no NaNO2, pH 2 (HCl), 24 hr): 0% | Nitration (%) ([3]; no NaNO3, no NaNO2, pH 2 (phosphate), 24 hr): 0% | Nitration (%) ([3]; no NaNO3, no NaNO2, pH 6.4, 24 hr): 0% | Nitration (%) ([3]; no NaNO3, no NaNO2, pH 7.2, 24 hr): 0% | nitrated reaction product in human subjects [4]: detected in a significant number of the subjects

Catechin
Nitration (%) of 1A with inhibiting agent ([1]; pH 2 (HCl), 4 hr): 0.01% | Nitration (%) of 1A with inhibiting agent ([1]; pH 2 (HCl), 24 hr): 0.02% | Nitration (%) of 1A with inhibiting agent ([1]; pH 2 (phosphate), 4 hr): 0.01% | Nitration (%) of 1A with inhibiting agent ([1]; pH 2 (phosphate), 24 hr): 0% | Nitration (%) of 1A with inhibiting agent ([1]; pH 6.4 (NaAc), 4 hr): 0% | Nitration (%) of 1A with inhibiting agent ([1]; pH 6.4 (NaAc), 24 hr): 0% | Nitration (%) of 1A with inhibiting agent ([1]; pH 6.4 (phosphate), 4 hr): 0% | Nitration (%) of 1A with inhibiting agent ([1]; pH 6.4 (phosphate), 24 hr): 0%
